Earlier results in patent US8148390B2, “Monocyclic anilide spirolactam CGRP receptor antagonists” (Merck, Sharp & Dohme, Corp., priority 2007, dated 2012).
Where two headings read alike, the source gives them in different places. Ends that are not written are not given here.

Assays:
[1] = test system: headache induced by CGRP infusion; details: control group (Petersen et al. 2005)
[2] = test system: acute attacks of migraine; details: clinical trials (Olesen et al. 2004)
facial blood flow [3] = details: marmoset, electrical stimulation of the trigeminal ganglion (Doods et al. 2000)
facial blood flow [4] = details: rat, trigeminal ganglion stimulation (Escott et al. 1995)
middle meningeal artery = details: rats, electrical stimulation of the dura mater, prior administration (Williamson et al. 1997)

Compound	prevention of headache induced by CGRP infusion [1]	efficacy in treating acute attacks of migraine [2]	effect on increase of facial blood flow (facial blood flow [3])	effect on increase of facial blood flow (facial blood flow [4])	effect on increase of middle meningeal artery diameter (middle meningeal artery)
NCCCC[C@H](NC(=O)[C@@H](Cc1cc(Br)c(O)c(Br)c1)NC(=O)N1CCC(N2Cc3ccccc3NC2=O)CC1)C(=O)N1CCN(c2ccncc2)CC1 [BIBN4096BS]	able to prevent headache induced by CGRP infusion	effective in treating acute attacks of migraine	could be blocked		
CGRP(8-37): a peptide CGRP antagonist; fragment of CGRP that lacks seven N-terminal amino acid residues (VTHRLAGLLSRSGGVVKNNFVPTNVGSKAF; ends and bridges not checked; UniProt P06881 90-119, looked up, fragment)				inhibited	blocked
